Entries after “also recorded” stand apart in the source; their conditions may differ.
Tests used:
CYP3A4 [1] = biological target: T1, CYP3A4 (Homo sapiens, UniProt P08684); assay: P450-Glo luminescence biochemical inhibition assay; settings: compound at 1.8 μM, DMSO 0.1%
CYP3A4 [2] = biological target: T1, CYP3A4; assay: Cytochrome P450 inhibition panel in pooled human liver microsomes; format: biochemical; settings: 1.8 μM clobetasol
[3] = tested on: CYP1A2, 2B6, 2C8, 2C9, 2C19, and 2D6; assay: as above; format: biochemical; settings: 1.8 μM clobetasol, own probe substrate per CYP
CYP3A5 [4] = biological target: T2, CYP3A5 (Homo sapiens, UniProt P20815); assay: CYP3A5 activity in AsPC-1 cells by 1-hydroxymidazolam formation; format: cell-based; settings: 5 μM midazolam, 24 h
CYP3A5 [5] = biological target: T2, CYP3A5; assay: CW X-band EPR spectroscopy of CYP3A5-ligand complexes; settings: CYP 200 μM, compound 400 μM, 10 K
CYP3A4 [6] = biological target: T1, CYP3A4; assay: CW X-band EPR spectroscopy of CYP3A4-ligand complexes; settings: CYP 200 μM, compound 400 μM, 10 K
CYP3A4 [7] = assay: Western blot of CYP3A4 protein level after compound treatment; settings: 1 μM compound, 24 h treatment
CYP3A5 [8] = biological target: T2, CYP3A5; assay: UV-visible absorbance titration with purified recombinant CYP3A5; settings: UV-visible Soret band shift

| Compound | Inhibition of CYP3A4 (CYP3A4 [1]) | Inhibition of CYP3A4-mediated catalysis, substrate midazolam (CYP3A4 [2]) | Inhibition of CYP3A4-mediated catalysis, substrate testosterone (CYP3A4 [2]) | Inhibition of other major human CYPs [3] | Inhibition of CYP3A5 activity (1OH-MDZ formation) (CYP3A5 [4]; CYP3A5 overexpressed (+Dox) in WT or 3A5-/- AsPC-1 cells) | Inhibition of CYP3A5 activity (1OH-MDZ formation) compared with ketoconazole (CYP3A5 [4]; parental AsPC-1 (WT) cells, dose-response) | Heme iron spin state of CYP3A5 complex (EPR) (CYP3A5 [5]) | Heme iron spin state of CYP3A4 complex (EPR) (CYP3A4 [6]) | Effect on CYP3A4 protein level (Western blot) (CYP3A4 [7]) | Spectral shift type on titration with CYP3A5 (CYP3A5 [8]) |
| --- | --- | --- | --- | --- | --- | --- | --- | --- | --- | --- |
| CCC(=O)O[C@]1(C(=O)CCl)[C@@H](C)C[C@H]2[C@@H]3CCC4=CC(=O)C=C[C@]4(C)[C@@]3(F)[C@@H](O)C[C@@]21C [clobetasol, Clobetasol propionate] | no inhibition | uninhibited | uninhibited | little or no inhibition; also recorded: no significant inhibition | inhibited the CYP3A5 activity | slightly more potent | five-coordinate HS ferric heme iron state | no new HS formation | did not increase the protein level of CYP3A4 |  |
| CC(=O)N1CCN(c2ccc(OCC3COC(Cn4ccnc4)(c4ccc(Cl)cc4Cl)O3)cc2)CC1 (stereo not shown) [ketoconazole, Ketoconazole] |  |  |  |  |  |  |  |  | increased CYP3A4 protein expression |  |
| Cc1ncc2n1-c1ccc(Cl)cc1C(c1ccccc1F)=NC2 [midazolam, Midazolam] |  |  |  |  |  |  | five-coordinate HS ferric heme iron state | an HS signal was induced |  | typical type I CYP spectral shift |

Source: article PMC7087482 (Journal of medicinal chemistry, 2020)
